Results published in ChEMBL document CHEMBL3044936, “Antifeedant properties of natural products from Parthenium argentatum, P. argentatumP. tomentosum (Asteraceae) and Castela emoryi (Simaroubeaceae) against Reticulitermes flavipes” (1999).
≈ marks a conversion by molar mass, not a printed value.

Columns and labels:
Type in all cases: functional
[1] = system: Reticulitermes flavipes; assay: Antitermitic activity against Reticulitermes flavipes assessed as mortality at 5.5 ug/disk after 10 days by no-choice paper disk assay; settings: 240 h
[2] = system: Reticulitermes flavipes; assay: Antifeedant activity against Reticulitermes flavipes assessed as feeding inhibition after 3 days by choice paper disk assay; settings: 72 h, read-out: ED50 (the source's name)
[3] = system: Reticulitermes flavipes; assay: Antifeedant activity against Reticulitermes flavipes assessed as feeding inhibition at 2.7 ug/disk after 3 days by choice paper disk assay; settings: 72 h
[4] = system: Reticulitermes flavipes; assay: Antifeedant activity against Reticulitermes flavipes assessed as compound consumption at 5.5 ug/disk after 10 days by no-choice paper disk assay
[5] = system: Reticulitermes flavipes; assay: Ratio of mortality to compound consumption in Reticulitermes flavipes at 5.5 ug/disk after 10 days

| Structure (SMILES) | mortality at 5.5 µg/disc [1] | EC50 [2] | inhibition at 2.7 µg/disc [3] | Activity [4] | Ratio [5] |
| --- | --- | --- | --- | --- | --- |
| COC1=C[C@]2(C)CCC(C(C)C)=CC2=C(C)C1=O [ARGENTONE] | 66% | 85.7 µg/mL (≈ 348 µM) | 70.5% | 33% | 2 |
| COc1ccc(C(=O)O[C@H]2C/C(C)=C/CC/C(C)=C/[C@H]3[C@@H]2C3(C)C)cc1 [GUAYULIN B] | 0% | > 1000 µg/mL | 31.9% | 72% | 0 |
| CC(=O)O[C@H]1C(=O)O[C@@H]2C[C@H]3C(C)=CC(=O)[C@@H](O)[C@]3(C)[C@H]3[C@]4(O)OC[C@]32[C@@H]1[C@@H](C)[C@H]4O [HOLACANTHONE] | 24% | > 1000 µg/mL | 39.4% | 34% | 0.7 |
| C/C1=C\[C@H]2[C@@H]([C@@H](O)C/C(C)=C/CC1)C2(C)C [PARTHENIOL] | 71% | 490 µg/mL (≈ 2230 µM) | 46% | 65% | 1.1 |
| CC(C)(O)[C@@H]1CC[C@](C)([C@H]2[C@@H](O)C[C@@]3(C)C4=C(CC[C@]23C)[C@@]2(C)CCC(=O)C(C)(C)[C@@H]2CC4)O1 [INCANILIN] | 0% | > 1000 µg/mL | 30.8% | 16% | 0 |
